Target: Sodium-dependent dopamine transporter (Rattus norvegicus, UniProt P23977)
Assay: Inhibition of [3H]WIN-35428 binding to dopamine transporter in rat striatal membranes.
Format: cell membranes, Membrane

Sequence of Sodium-dependent dopamine transporter (P23977 whole entry): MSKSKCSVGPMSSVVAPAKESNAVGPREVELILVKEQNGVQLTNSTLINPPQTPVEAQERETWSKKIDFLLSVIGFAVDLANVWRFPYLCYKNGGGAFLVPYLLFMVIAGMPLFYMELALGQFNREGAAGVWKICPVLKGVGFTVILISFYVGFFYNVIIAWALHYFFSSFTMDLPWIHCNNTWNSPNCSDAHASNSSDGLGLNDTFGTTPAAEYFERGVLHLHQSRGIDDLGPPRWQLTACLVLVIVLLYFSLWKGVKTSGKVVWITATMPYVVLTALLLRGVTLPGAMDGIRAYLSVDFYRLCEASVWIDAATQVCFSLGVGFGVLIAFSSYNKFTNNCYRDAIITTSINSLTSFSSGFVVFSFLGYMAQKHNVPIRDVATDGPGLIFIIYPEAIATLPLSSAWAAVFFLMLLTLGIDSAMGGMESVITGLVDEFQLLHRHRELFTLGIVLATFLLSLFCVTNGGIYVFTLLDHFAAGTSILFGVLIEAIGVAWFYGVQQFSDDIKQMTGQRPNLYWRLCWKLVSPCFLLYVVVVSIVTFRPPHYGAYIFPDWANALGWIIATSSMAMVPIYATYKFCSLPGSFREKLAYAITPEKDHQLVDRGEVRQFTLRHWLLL

| SMILES | IC50 [nM] |
| --- | --- |
| COC(=O)C1C2CCC(C[C@H]1OC(=O)c1ccccc1)N2 (stereo not given in full) | 303 |
| CN1C2CCC1C(C(=O)OCCc1ccccc1)[C@H](OC(=O)c1ccccc1)C2 (stereo not given in full) | 248 |
| COC(=O)[C@H]1C2CCC(C[C@@H]1OC(=O)c1ccccc1)N2 (stereo in doubt; form 2) [PSEUDOCOCAINE] | 15800 |
| CN1C2CCC1C(CO)[C@H](OC(=O)c1ccccc1)C2 (stereo not given in full) | 561 |
| COC(=O)C1C2CCC(C[C@H]1c1ccc(N)cc1)N2C (stereo not given in full) | 25 |
| COC(=O)C1C2CCC(C[C@H]1OC(=O)c1ccccc1)N2Cc1ccccc1 (stereo not given in full) | 668 |
| CN1C2CCC1C(C(=O)OCCc1ccc(N)cc1)[C@H](OC(=O)c1ccccc1)C2 (stereo not given in full) | 72 |
| CN1C2CCC1C(C(=O)Oc1ccccc1)[C@H](OC(=O)c1ccccc1)C2 (stereo not given in full) | 112 |
| COC(=O)C1C2CCC(C[C@H]1c1ccccc1)N2C (stereo not given in full) | 23 |
| COC(=O)[C@H]1C2CCC(C[C@@H]1OC(=O)c1ccccc1)N2 (stereo in doubt; form 1) [PSEUDOCOCAINE] | 22500 |

Reference: ChEMBL document CHEMBL1126898 (J Med Chem, 1993)
